Assays:
[1] = system: HIV-1 protease (PR); assay type: cell-based; settings: SupT1 PR/Gal4 clone, 1 μg/mL Dox; for inhibitor concentration resulting in eGFP activation: analyzed 50 hrs later, range tested 1 nM to 20 μM
[2] = system: tet-responsive element (TRE) / rtTA; test: Doxycycline activation titration of clonal SupT1 cells (Tet-On induction of eGFP reporter); assay type: cell-based
From the text: To obtain an inducible cell line, we utilized the tetracycline inducible system (Tet-On). For this purpose we constructed two lentiviral vectors; one harboring a 7× Tetracycline Response Element (TRE) upstream the gene of interest and another expressing the reverse tet-transactivator (rtTA) coupled to an IRES-mCherry cassette to corroborate rtTA expression. In this system, the TRE element is bound and activated by rtTA only in the presence of an inducer (Tet or Dox). Gal4, PR/Gal4 and PRm/Gal4 were all transferred into the TRE inducible vector (see Figures).
In order to optimize the assay for maximal Gal4, PR/Gal4 or PRm/Gal4 induction, we analyzed the effect of increasing levels of Dox. Cells with 0, 50, 100, 250, 500, 750, 1,000, and 2,000 ng/mL Dox were either treated with 10 uM DMSO or 10 uM Indinavir and analyzed 32 hours later. TRE-Gal4 cells reached saturation with Doxycycline at about 1,000 ng/mL whether Indinavir was present or not. […] Again, as with transiently transfected 293 cells, TRE-PR/Gal4 cells had little to non-detectable eGFP expression at any given Dox concentration in the absence of 10 μM Indinavir.
(§1) FIG. 22 graphically illustrates data determining the optimal conditions for activating the assay to screen for PR inhibition. FIG. 22A graphically illustrates a Doxycycline titration. Clonal SupT1 cells harboring an inducible Gal4, PR/Gal4 or PRm/Gal4 were pre-incubated in a 96 well plate with either DMSO or 10 μM Indinavir and then either left untreated, or activated with […] of Dox. Cells were analyzed by flow cytometry and gated to determine the number of cells positive for eGFP expression. FIG. 22B graphically illustrates a time course of eGFP Induction in response to Doxycyline activation in the presence of DMSO or a PI. SupT1 clones harboring Gal4, PR/Gal4, or PRm/Gal4 were pre-incubated in a 96 well plate with either DMSO or 10 μM Indinavir and then activated with 1 μg/mL Dox. Cells were analyzed at either 4, 8, 12, 16, 20, 25, 50 or 75 hours by flow cytometry and gated for eGFP positive expression.

[3] = system: HIV-1 protease (PR); assay type: cell-based; settings: HEK293T cells pre-treated with 10 uM inhibitor, co-transfected with reporter and pcDNA-PR/Gal4
Protocol: It was of critical importance to verify the ability for the PR/Gal4 fusion to activate the reporter eGFP by the addition of PR inhibitors. For that purpose, 293T cells were pre-treated with 10 μM Indinavir and then co-transfected with reporter and pcDNA-PR/Gal4 vectors.
293T cells were transfected as follows. 15 μl of 2 mg/mL Polyethylenimine linear 25 kD (Polysciences, Inc.) were added to 125 μl of DMEM in a 1.8 ml Eppendorf tube. 3 μg of each DNA was added drop-wise to each tube. Tubes were mixed and incubated for 20 min at RT. This mixture was then added drop-wise to 293T cells in a 10 cm plate at ˜60-75% confluence. Cells were then analyzed by fluorescence microscopy and/or flow cytometry 24 hrs post transfection.
Top Panel: Fluorescence microscopy of eGFP expression in HEK293T cells 24 hours post transfection with the reporter vector (pFR), or co-transfection with the reporter vector plus either the Gal4, PR/Gal4, or PRm/Gal4 vectors. Bottom panel: HEK293T cells were analyzed by flow cytometry at 24 hours post transfection with the same conditions top panel. Gates were drawn to determine the ability to identify cells with an active PI. […] Quantification of eGFP expression in HEK293T transfected with various assay elements. The numbers of cells under various conditions were quantified for eGFP levels indicative of PR inhibition. Results shown are an average of 3 experiments.

[4] = system: HIV-1 protease (PR); assay type: cell-based
From the text: Finally, cells were infected with virus encoding the reporter, rtTA and inducible wild-type PR/Gal4 (pH-TRE-PR/Gal4) to test the ability for this system in T-cells to indicate the levels of PR activity.
Finally, individual cells from these sorted populations were sorted into a 96 well plate based on the lack of eGFP expression. Clonal cell lines obtained from this experiment were later activated under the same conditions described above, and screened for the individual clones which responded as desired (minimal background and maximal eGFP activation). […] These clones were then expanded and further tested in the following experiments.
To determine the optimal time point for the analysis of eGFP expression in the presence of inhibitor, cells were activated with Dox and analyzed by flow cytometry 4, 8, 12, 16, 20, 25, 50, or 75 hours later. Six-well plates containing 250K cells per well in 3 mL media were treated either with DMSO alone as control, or 1 μg/mL Dox and 10 μM Indinavir.
A 2 ml reaction containing 4 μl of 5 μg/mL Polybrene (Hexadimethrene Bromide, Sigma), 500K SupT1 cells in RPMI (10% FCS, L-glutamine, Pen-strep) and 250 μl frozen viral stocks was mixed, added to wells in 6-well plates, and spun in a hanging bucket rotors Becton Dickinson centrifuge at 1500 RPM, for 120′ at 32° C. Cells were re-suspended and placed in a 37° C. incubator for the analysis of expression at least 72 hours post-infection.
Flow Cytometry was performed on a BD FACSAria with 488 nm and 633 nm lasers. Data was collected on FACSDiva 6.1.1 software and then exported to FlowJo. eGFP expression was detected in the FITC channel and mCherry expression was detected on the PE-Texas-Red channel. Cells were first gated for size and granularity (FSC-A vs SSC-A) followed by doublet gating (FSC-A vs FSC-W and SSC-A vs. SSC-W). Sorted populations were gated on PE-TexasRed vs FITC plot. 250K cells were collected for each sample into 0.5 mL fetal calf serum (FCS) and 1 mL RPMI. Cells were then spun down at 1500 RPM and resuspended in fresh media in 6-well plates. Cells were allowed to grow for at least seven days to allow for expansion and loss of previously activated eGFP expression.
as §1

[5] = system: SupT1 cells; settings: human, 50 h
Protocol: (§2) The range chosen extended from 1 nM to 20 μM.
(§3) The selected SupT1 clone expressing rtTA and mCherry, the 5×UAS-eGFP reporter and an inducible PR/Gal4 were activated with 1 μg/mL and incubated with various concentrations (1, 10, 50, 100, 500, 1000, 5000, 10000 or 20000 ng/mL) of an FDA approved PI: Either Amprenavir, Atazanavir, Darunavir, Indinavir, Lopinavir, Nelfinavir, Ritonavir, Saquinavir, or Tipranavir. Cells were then analyzed 50 hrs later for eGFP expression as determined by flow cytometry on a BD FACSAria.

[6] = system: HIV-1 protease (PR); test: Expression of GFP-PR fusion in cells transfected with pcDNA-GFP-PR (fluorescence microscopy); assay type: cell-based; settings: inhibitor added at 0 and 24 h post transfection
From the text: In one embodiment, to achieve low levels of protease, e.g., PR, expression in mammalian cells, a tetracycline (Tet) inducible system is used. FIG. 3 illustrates by fluorescence microscopy use of an exemplary vector of the invention, a Tet-inducible HIV-based self-inactivating vector, that allows regulated expression of the gene of interest. In this case, we have used the enhanced green fluorescent protein (eGFP) as the ectopic gene. This vector allows different levels of protein expression. Tight repression and expression of PR at low levels may be crucial to avoid the possible side effects of PR. […] FIG. 3 illustrates by fluorescence microscopy HeLa cells infected with a Tet inducible HIV-based self-inactivating vector. The cells were incubated with 1 μg/ml Tet and eGFP expression was observed by fluorescence microscopy 24 and 72 h post addition of Tet. […]
In summary, FIG. 4 illustrates fluorescent microscopy analysis of cells transfected with pcDNA control (Invitrogen) and pcDNA-GFP-PR. GFP expression was analyzed 24 h post transfection. […]
In summary, FIG. 5 graphically illustrates flow cytometry analysis of cells expressing PR-GFP fusion. Cells transfected with pcDNA (control) or pcDNA-GFP-PR fusions were collected 48 hr post-transfection and analyzed for GFP expression. […]

[7] = system: SupT1 cells; test: Cell death in reporter SupT1 T-cell clones incubated with PR inhibitors; settings: SupT1 PR/Gal4 clone, 50 hrs
Protocol: as §2, §3

SMILES: COC(=O)N[C@H](C(=O)N[C@@H](Cc1ccccc1)[C@@H](O)CN(Cc1ccc(-c2ccccn2)cc1)NC(=O)[C@@H](NC(=O)OC)C(C)(C)C)C(C)(C)C [Atazanavir]
- inhibitor concentration resulting in eGFP activation [1]: 1 nM

SMILES: CC(C)CN(C[C@@H](O)[C@H](Cc1ccccc1)NC(=O)O[C@H]1CO[C@H]2OCC[C@H]21)S(=O)(=O)c1ccc(N)cc1 [Darunavir]
- inhibitor concentration resulting in eGFP activation [1]: 1 nM

SMILES: C[C@H]1c2cccc(O)c2C(=O)C2=C(O)[C@]3(O)C(=O)C(C(N)=O)=C(O)[C@@H](N(C)C)[C@@H]3[C@@H](O)[C@@H]21 [Doxycycline]
- Dox concentration at saturation of eGFP induction ([2]; TRE-Gal4 cells, with or without 10 uM Indinavir, 32 hours): about 1,000 ng/mL
- Dox concentration at maximal eGFP induction ([2]; TRE-PR/Gal4 cells pre-incubated with 10 μM Indinavir, 32 hours): around 500 ng/mL
- Dox concentration at saturation of eGFP induction ([2]; TRE-PRm/Gal4 cells, uninhibited and Indinavir-treated, 32 hours): around 250 ng/mL
- Dox concentration at which activation is saturated ([2]; clonal SupT1 cells pre-incubated with DMSO or 10 μM Indinavir): around 1 μg/mL

SMILES: CC(C)(C)NC(=O)[C@@H]1CN(Cc2cccnc2)CCN1C[C@@H](O)C[C@@H](Cc1ccccc1)C(=O)N[C@H]1c2ccccc2C[C@H]1O [Indinavir]
- inhibitor concentration inducing nearly full activation of eGFP reporter ([1]; 50 hrs): 5 µM
- level of reporter activation at low concentrations ([1]; 50 hrs, compared with the other FDA-approved PIs): lowest levels of reporter activation at low concentrations
- eGFP induction by PR/Gal4 fusion in presence of inhibitor [3]: drastic induction
- activation of PR/Gal4 clones (GFP positive) ([4]; SupT1 PR/Gal4 clones, Dox 1 μg/mL, PI 10 μM): ~90%
- time of initial induction of eGFP expression ([4]; SupT1 clone, 1 μg/mL Dox and 10 μM inhibitor): 8 h
- eGFP expression (positive cells) by 50 hours ([4]; SupT1 clone, 1 μg/mL Dox and 10 μM inhibitor, 50 hours): ~100%
- time at which activation of clones reaches max ([4]; clonal SupT1 cells in 96-well plates, pre-incubation with 10 μM PI, Dox activation): around 48 hrs
- eGFP induction in presence of inhibitor ([4]; non-clonal SupT1 cells with reporter, rtTA and pH-TRE-PR/Gal4, 1 μg/mL Dox and 10 μM inhibitor): large induction of eGFP expression

SMILES: Cc1cccc(C)c1OCC(=O)N[C@@H](Cc1ccccc1)[C@@H](O)C[C@H](Cc1ccccc1)NC(=O)[C@H](C(C)C)N1CCCNC1=O [Lopinavir]
- concentration resulting in significant cell death, with decline in number of eGFP positive cells [5]: around 1 uM

SMILES: Cc1c(O)cccc1C(=O)N[C@@H](CSc1ccccc1)[C@H](O)CN1C[C@H]2CCCC[C@H]2C[C@H]1C(=O)NC(C)(C)C [Nelfinavir]
- concentration resulting in significant cell death, with decline in number of eGFP positive cells [5]: around 1 uM

SMILES: CC(C)(C)NC(=O)[C@@H]1C[C@@H]2CCCC[C@@H]2CN1C[C@@H](O)[C@H](Cc1ccccc1)NC(=O)[C@H](CC(N)=O)NC(=O)c1ccc2ccccc2n1 [Saquinavir]
- expression of N-terminal GFP-PR fusion in presence of inhibitor [6]: highly expressed
- concentration with significant decline in the number of eGFP positive cells (cell death) [7]: 20 µM

SMILES: CCC[C@@]1(CCc2ccccc2)CC(O)=C([C@H](CC)c2cccc(NS(=O)(=O)c3ccc(C(F)(F)F)cn3)c2)C(=O)O1 [Tipranavir]
- inhibitor concentration inducing nearly full activation of eGFP reporter ([1]; 50 hrs): 5 µM

Source: patent publication US9518254B2, “Compositions and methods for identifying enzyme and transport protein inhibitors” (San Diego State University Research Foundation, priority 2009, dated 2016)
